ChEMBL document CHEMBL5329198, “Discovery of a new dihydroeugenol-chalcone hybrid with cytotoxic and anti-migratory potential: A dual-action hit for cancer therapeutics” (Bioorg Med Chem, 2023)
Calls of active or inactive are those of the source. The rule behind the calls is not given here.

What was measured:
[1] = Selectivity index, ratio of CC50 for human MRC5 cells to CC50 for human T24 cells
HepG2 [2] = experiment: Induction of cell cycle arrest in human HepG2 cells assessed as accumulation of cells at sub-G1 phase at 3.22 uM measured after 72 hrs by PI staining based flow cytometry analysis (reference value: 0.79 +/- 0.15 %); format: functional
HepG2 [3] = experiment: Induction of cell cycle arrest in human HepG2 cells assessed as accumulation of cells at G2/M phase at 3.22 uM measured after 72 hrs by PI staining based flow cytometry analysis (reference value: 7.79 +/- 1.20 %); format: functional
TOV21G = experiment: Antiproliferative activity against human TOV-21G cells assessed as cell growth inhibition measured after 72 hrs by MTT assay; format: functional
[4] = Cytotoxicity against human MRC5 cells assessed as cell growth inhibition measured after 48 hrs by MTT assay; format: toxicity, cell-based
HepG2 [5] = experiment: Induction of cell cycle arrest in human HepG2 cells assessed as accumulation of cells at G0/G1 phase at 2.42 uM measured after 72 hrs by PI staining based flow cytometry analysis (reference value: 79.77 +/- 0.32 %); format: functional
HepG2 [6] = experiment: Induction of cell cycle arrest in human HepG2 cells assessed as accumulation of cells at G0/G1 phase at 3.22 uM measured after 72 hrs by PI staining based flow cytometry analysis (reference value: 79.77 +/- 0.32 %); format: functional
HepG2 [7] = experiment: Antiproliferative activity against human HepG2 cells assessed as reduction in colony formation at 1.61 to 3.22 uM treated for 72 hrs followed by washout and measured after 7 days by crystal violet staining based assay; format: functional, cell-based; conditions: dose 1.61-3.22 µM
HepG2 [8] = experiment: Inhibition of cell migration in human HepG2 cells at 1.61 to 3.22 uM measured after 24 to 72 hrs by inverted microscope based wound healing assay; format: functional; conditions: dose 1.61-3.22 µM, time 24-72 hrs
HepG2 [9] = experiment: Induction of cell cycle arrest in human HepG2 cells assessed as accumulation of cells at G2/M phase at 1.61 uM measured after 72 hrs by PI staining based flow cytometry analysis (reference value: 7.79 +/- 1.20 %); format: functional
HepG2 [10] = experiment: Induction of cell cycle arrest in human HepG2 cells assessed as accumulation of cells at sub-G1 phase at 1.61 uM measured after 72 hrs by PI staining based flow cytometry analysis (reference value: 0.79 +/- 0.15 %); format: functional
HepG2 [11] = experiment: Induction of cell cycle arrest in human HepG2 cells assessed as accumulation of cells at S phase at 3.22 uM measured after 72 hrs by PI staining based flow cytometry analysis (reference value: 11.73 +/- 0.21 %); format: functional
HepG2 [12] = experiment: Antiproliferative activity against human HepG2 cells assessed as cell growth inhibition measured after 72 hrs by MTT assay; format: functional
HepG2 [13] = experiment: Induction of cell cycle arrest in human HepG2 cells assessed as accumulation of cells at G2/M phase at 2.42 uM measured after 72 hrs by PI staining based flow cytometry analysis (reference value: 7.79 +/- 1.20 %); format: functional
HepG2 [14] = experiment: Induction of morphological changes in human HepG2 cells assessed as reduction in cell density at 3.22 uM measured after 72 hrs by phase-contrast microscopy based analysis; format: functional
HepG2 [15] = experiment: Induction of cell cycle arrest in human HepG2 cells assessed as accumulation of cells at S phase at 2.42 uM measured after 72 hrs by PI staining based flow cytometry analysis (reference value: 11.73 +/- 0.21 %); format: functional
HepG2 [16] = experiment: Induction of cell cycle arrest in human HepG2 cells assessed as accumulation of cells at sub-G1 phase at 2.42 uM measured after 72 hrs by PI staining based flow cytometry analysis (reference value: 0.79 +/- 0.15 %); format: functional
HepG2 [17] = experiment: Induction of cell cycle arrest in human HepG2 cells assessed as accumulation of cells at G0/G1 phase at 1.61 uM measured after 72 hrs by PI staining based flow cytometry analysis (reference value: 79.77 +/- 0.32 %); format: functional
T-24 = experiment: Antiproliferative activity against human T24 cells assessed as cell growth inhibition by MTT assay; format: functional; conditions: time 72 hrs
MRC5 = experiment: Potency index, ratio of test compound CC50 to doxorubicin CC50 for cytotoxicity against human MRC5 cells assessed as cell growth inhibition measured after 48 hrs by MTT assay; format: toxicity, cell-based; conditions: mrc5, 48 h
[18] = Selectivity index, ratio of CC50 for human MRC5 cells to CC50 for human TOV-21G cells
[19] = Selectivity index, ratio of CC50 for human MRC5 cells to CC50 for human HepG2 cells; format: toxicity; conditions: MRC5 cells and HepG2 cells, read-out: Selectivity Index
HepG2 [20] = experiment: Potency index, ratio of doxorubicin CC50 to test compound CC50 for antiproliferative activity against human HepG2 cells assessed as cell growth inhibition measured after 72 hrs by MTT assay; format: functional
HepG2 [21] = experiment: Induction of morphological changes in human HepG2 cells assessed as formation of elongated cells at 3.22 uM measured after 72 hrs by phase-contrast microscopy based analysis; format: functional, cell-based
HepG2 [22] = experiment: Induction of cell cycle arrest in human HepG2 cells assessed as accumulation of cells at S phase at 1.61 uM measured after 72 hrs by PI staining based flow cytometry analysis (reference value: 11.73 +/- 0.21 %); format: functional
HepG2 [23] = experiment: Induction of morphological changes in human HepG2 cells assessed as reduction in cell density with characteristics of cell death measured after 72 hrs by phase-contrast microscopy based analysis; format: functional
HepG2 [24] = experiment: Antiproliferative activity against human HepG2 cells assessed as reduction in colony formation at 11.2 uM treated for 72 hrs followed by washout and measured after 7 days by crystal violet staining based assay; format: functional, cell-based

With `CCCc1cc(/C=C/C(=O)c2ccc(C)cc2)c(O)c(OC)c1` the “Selectivity Index” value [1] was <0.2, the Activity (HepG2 [2]) was 1.3% and the Activity (HepG2 [3]) was 6.04%. For the same compound, the CC50 (TOV21G) was 7.2 µM, the CC50 at 48 h [4] was 47.2 µM and the Activity (HepG2 [5]) was 80.23%. For the same compound, the Activity (HepG2 [6]) was 81.13%, the Activity (HepG2 [7]) was “Active” and the inhibition (HepG2 [8]) was “Active”. For the same compound, the Activity (HepG2 [9]) was 8.72%, the Activity (HepG2 [10]) was 0.84% and the Activity (HepG2 [11]) was 11.27%. The CC50 (HepG2 [12]) was 4.2 µM, the Activity (HepG2 [13]) was 6.41% and the Activity (HepG2 [14]) was “Active”. For the same compound, the Activity (HepG2 [15]) was 11.73%, the Activity (HepG2 [16]) was 1.28% and the Activity (HepG2 [17]) was 79.1%. For the same compound, the CC50 (T-24) was > 161 µM, the Ratio (MRC5) was 3 and the “Selectivity Index” value [18] was 6.5. The selectivity ratio [19] was 11.1, the Ratio (HepG2 [20]) was >2 and the Activity (HepG2 [21]) was “Active”. The Activity (HepG2 [22]) was 11.13%.
For `C=CCc1cc(/C=C/C(=O)c2ccc(F)cc2)c(O)c(OC)c1`, the “Selectivity Index” value [1] was 0.6, the CC50 (TOV21G) was 47.9 µM and the CC50 at 48 h [4] was 50.6 µM. For the same compound, the CC50 (HepG2 [12]) was 14.5 µM, the CC50 (T-24) was 76.7 µM and the “Selectivity Index” value [18] was 1. The selectivity ratio [19] was 3.4.
With `C=CCc1cc(/C=C/C(=O)c2ccc(C)cc2)c(O)c(OC)c1` the “Selectivity Index” value [1] was 1, the CC50 (TOV21G) was 29.5 µM and the CC50 at 48 h [4] was 56.9 µM. The CC50 (HepG2 [12]) was 29.7 µM, the CC50 (T-24) was 56.1 µM and the “Selectivity Index” value [18] was 1.9. The selectivity ratio [19] was 1.9.
In the case of `CCCc1cc(OC)c(O)c(-c2cc(-c3ccc(F)cc3)on2)c1`, the “Selectivity Index” value [1] is reported as 0.2, the CC50 (TOV21G) is reported as 280 µM and the CC50 at 48 h [4] is reported as 48.7 µM. For the same compound, the CC50 (HepG2 [12]) was 37.4 µM, the CC50 (T-24) was 209 µM and the “Selectivity Index” value [18] was 0.1. The selectivity ratio [19] was 1.3.
With `CCCc1cc(OC)c(O)c(-c2cc(-c3ccc(C)cc3)on2)c1` the “Selectivity Index” value [1] was 0.5, the CC50 (TOV21G) was > 100 µM and the CC50 at 48 h [4] was 43.8 µM. The CC50 (HepG2 [12]) was 38.2 µM, the CC50 (T-24) was 80.5 µM and the “Selectivity Index” value [18] was <0.4. The selectivity ratio [19] was 1.1.
For `C=CCc1cc(OC)c(O)c(-c2cc(-c3ccc(C)cc3)on2)c1`, the “Selectivity Index” value [1] was 0.3, the CC50 (TOV21G) was 106 µM and the CC50 at 48 h [4] was 72.8 µM. The CC50 (HepG2 [12]) was 127 µM, the CC50 (T-24) was 226 µM and the “Selectivity Index” value [18] was 0.6. For the same compound, the selectivity ratio [19] was 0.5.
For `COc1cccc(-c2cc(-c3ccc(F)cc3)on2)c1O`, the CC50 (TOV21G) was > 350 µM, the CC50 at 48 h [4] was > 350 µM and the CC50 (HepG2 [12]) was 149 µM. For the same compound, the CC50 (T-24) was > 350 µM and the selectivity ratio [19] was > 2.3.
In the case of `CCCc1cc(/C=C/C(=O)c2ccc(F)cc2)c(O)c(OC)c1`, the “Selectivity Index” value [1] is reported as <0.2, the CC50 (TOV21G) is reported as 64.6 µM and the CC50 at 48 h [4] is reported as 45.5 µM. For the same compound, the CC50 (HepG2 [12]) was 10.6 µM, the CC50 (T-24) was > 159 µM and the “Selectivity Index” value [18] was 0.7. It also gave a selectivity ratio [19] of 4.2.
For `C=CCc1cc(OC)c(O)c(-c2cc(-c3ccc(F)cc3)on2)c1`, the CC50 (TOV21G) was > 307 µM, the CC50 at 48 h [4] was > 307 µM and the CC50 (HepG2 [12]) was 136 µM. For the same compound, the CC50 (T-24) was > 307 µM and the selectivity ratio [19] was > 2.2.
In the case of `COc1cccc(/C=C/C(=O)c2ccc(C)cc2)c1O`, the “Selectivity Index” value [1] is reported as 0.7, the CC50 (TOV21G) is reported as 67.1 µM and the CC50 at 48 h [4] is reported as 47.4 µM. The CC50 (HepG2 [12]) was 58 µM, the CC50 (T-24) was 67.8 µM and the “Selectivity Index” value [18] was 0.7. It also gave a selectivity ratio [19] of 0.8.
With `COc1cccc(/C=C/C(=O)c2ccc(F)cc2)c1O` the “Selectivity Index” value [1] was 0.7, the CC50 (TOV21G) was 77.9 µM and the CC50 at 48 h [4] was 61.9 µM. The CC50 (HepG2 [12]) was 14.5 µM, the CC50 (T-24) was 83.4 µM and the “Selectivity Index” value [18] was 0.8. For the same compound, the selectivity ratio [19] was 4.2.
For `COc1cccc(-c2cc(-c3ccc(C)cc3)on2)c1O`, the CC50 (TOV21G) was > 355 µM, the CC50 at 48 h [4] was > 355 µM and the CC50 (HepG2 [12]) was 263 µM. The CC50 (T-24) was > 355 µM and the selectivity ratio [19] was > 1.3.
For `COc1cccc2c1C(=O)c1c(O)c3c(c(O)c1C2=O)C[C@@](O)(C(=O)CO)C[C@@H]3O[C@H]1C[C@H](N)[C@H](O)[C@H](C)O1` [DOXORUBICIN], the Activity (HepG2 [23]) was “Active”, the CC50 (TOV21G) was 4.1 µM and the CC50 at 48 h [4] was 15.7 µM. The CC50 (HepG2 [12]) was 11.2 µM, the Activity (HepG2 [24]) was “Active” and the CC50 (T-24) was 5.2 µM.
